The values that follow come from ChEMBL document CHEMBL4411277, “Structural Revision of Macropodumine A and Structure of 2-Deoxymacropodumine A, Daphniphyllum Alkaloids with 11-Membered Macrolactone Rings” (J Nat Prod, 2019).

The subject of this test is HeLa. Put plainly: Cytotoxicity against human HeLa cells assessed as reduction in cell viability by MTT assay. The format is functional, cell-based. A general note: Tetrazolium dyes change colour on reduction, which living cells bring about.

Each structure is given as a SMILES string. pIC50: −log10 of the molar value.

As for `C[C@@H]1CN2C[C@H]3CCC(=O)OCC[C@H]4CC5=C(C4=O)[C@@]3(C)[C@H]2C[C@H]1C5=O`, the pIC50 (usually the IC50 on a negative log10 scale, so that one unit is a factor of ten) is 5.41.
